Experimental data as given in BindingDB's records for doi:10.1016/j.bmcl.2009.11.072 (Roche Palo Alto, 2010).
pIC50: −log10 of the molar value.

Experiment: Antagonist activity at human recombinant CCR5 by cell-cell fusion assay

Row | SMILES | pIC50
1 | Cc1ncnc(C)c1C(=O)N1C[C@H]2CN(CCC3(c4cccc(F)c4)CCN(C(=O)CC(C)(C)C)CC3)C[C@H]2C1 [1-(4-(2-((3aR,6aS)-5-(4,6-dimethylpyrimidine-5-carbonyl)hexahydropyrrolo[3,4-c]pyrrol-2(1H)-yl)ethyl)-4-(3-fluorophenyl)piperidin-1-yl)-3,3-dimethylbutan-1-one] | 6.47
2 | Cc1cc(C#N)nc(C)c1C(=O)N1C[C@H]2CN(CCC3(c4cccc(F)c4)CCN(C(=O)C(C)(C)C)CC3)C[C@H]2C1 [5-((3aR,6aS)-5-(2-(4-(3-fluorophenyl)-1-pivaloylpiperidin-4-yl)ethyl)octahydropyrrolo[3,4-c]pyrrole-2-carbonyl)-4,6-dimethylpicolinonitrile] | 7.43
3 | Cc1nc(C(F)(F)F)nc(C)c1C(=O)N1C[C@H]2CN(CCC3(c4ccccc4)CN(C(=O)C4CC(F)(F)C4)C3)C[C@H]2C1 [((3aR,6aS)-5-(2-(1-(3,3-difluorocyclobutanecarbonyl)-3-phenylazetidin-3-yl)ethyl)hexahydropyrrolo[3,4-c]pyrrol-2(1H)-yl)(4,6-dimethyl-2-(trifluoromethyl)pyrimidin-5-yl)methanone] | 6.77
4 | Cc1ncnc(C)c1C(=O)N1C[C@H]2CN(CCC3(c4cccc(F)c4)CCN(C(=O)C(C)C)CC3)C[C@H]2C1 [1-(4-(2-((3aR,6aS)-5-(4,6-dimethylpyrimidine-5-carbonyl)hexahydropyrrolo[3,4-c]pyrrol-2(1H)-yl)ethyl)-4-(3-fluorophenyl)piperidin-1-yl)-2-methylpropan-1-one] | 6.80
5 | CC(=O)N1CCC(CCN2C[C@@H]3CN(C(=O)c4c(C)ncnc4C)C[C@@H]3C2)(c2cccc(F)c2)CC1 [1-(4-(2-((3aR,6aS)-5-(4,6-dimethylpyrimidine-5-carbonyl)hexahydropyrrolo[3,4-c]pyrrol-2(1H)-yl)ethyl)-4-(3-fluorophenyl)piperidin-1-yl)ethanone] | < 5.60
6 | Cc1cc(C(F)(F)F)nc(C)c1C(=O)N1C[C@H]2CN(CCC3(c4ccccc4)CN(C(=O)C4CC(F)(F)C4)C3)C[C@H]2C1 [((3aR,6aS)-5-(2-(1-(3,3-difluorocyclobutanecarbonyl)-3-phenylazetidin-3-yl)ethyl)hexahydropyrrolo[3,4-c]pyrrol-2(1H)-yl)(2,4-dimethyl-6-(trifluoromethyl)pyridin-3-yl)methanone] | 8.52
7 | Cc1ncnc(C)c1C(=O)N1C[C@H]2CN(CCC3(c4cccc(F)c4)CCN(C(=O)C(C)(C)C)CC3)C[C@H]2C1 [1-(4-(2-((3aR,6aS)-5-(4,6-dimethylpyrimidine-5-carbonyl)hexahydropyrrolo[3,4-c]pyrrol-2(1H)-yl)ethyl)-4-(3-fluorophenyl)piperidin-1-yl)-2,2-dimethylpropan-1-one] | 6.89
8 | Cc1cc(C#N)nc(C)c1C(=O)N1C[C@H]2CN(CCC3(c4ccccc4)CCN(C(=O)C(C)(C)C)C3)C[C@H]2C1 (stereo partly drawn) [4,6-dimethyl-5-((3aR,6aS)-5-(2-(3-phenyl-1-pivaloylpyrrolidin-3-yl)ethyl)octahydropyrrolo[3,4-c]pyrrole-2-carbonyl)picolinonitrile] | 6.44
9 | Cc1cc(C(F)(F)F)nc(C)c1C(=O)N1C[C@H]2CN(CCC3(c4ccccc4)CN(C(=O)C4CCC(F)(F)CC4)C3)C[C@H]2C1 [((3aR,6aS)-5-(2-(1-(4,4-difluorocyclohexanecarbonyl)-3-phenylazetidin-3-yl)ethyl)hexahydropyrrolo[3,4-c]pyrrol-2(1H)-yl)(2,4-dimethyl-6-(trifluoromethyl)pyridin-3-yl)methanone] | 8.70
10 | Cc1cc(C#N)nc(C)c1C(=O)N1C[C@H]2CN(CCC3(c4ccccc4)CCN(C(=O)C4CCCC4)C3)C[C@H]2C1 (stereo partly drawn) [5-((3aR,6aS)-5-(2-(1-(cyclopentanecarbonyl)-3-phenylpyrrolidin-3-yl)ethyl)octahydropyrrolo[3,4-c]pyrrole-2-carbonyl)-4,6-dimethylpicolinonitrile] | 7.07
11 | Cc1nc(C(F)(F)F)nc(C)c1C(=O)N1C[C@H]2CN(CCC3(c4ccccc4)CN(C(=O)C4CCOC4)C3)C[C@H]2C1 (stereo partly drawn) [(4,6-dimethyl-2-(trifluoromethyl)pyrimidin-5-yl)((3aR,6aS)-5-(2-(3-phenyl-1-(tetrahydrofuran-3-carbonyl)azetidin-3-yl)ethyl)hexahydropyrrolo[3,4-c]pyrrol-2(1H)-yl)methanone] | 7.04
12 | Cc1nc(C(F)(F)F)nc(C)c1C(=O)N1C[C@H]2CN(CCC3(c4ccccc4)CN(C(=O)C4CCC(F)(F)CC4)C3)C[C@H]2C1 [((3aR,6aS)-5-(2-(1-(4,4-difluorocyclohexanecarbonyl)-3-phenylazetidin-3-yl)ethyl)hexahydropyrrolo[3,4-c]pyrrol-2(1H)-yl)(4,6-dimethyl-2-(trifluoromethyl)pyrimidin-5-yl)methanone] | 8.30
13 | Cc1ncnc(C)c1C(=O)N1C[C@H]2CN(CCC3(c4cccc(F)c4)CCN(C(=O)C(C)(C)CO)CC3)C[C@H]2C1 [1-(4-(2-((3aR,6aS)-5-(4,6-dimethylpyrimidine-5-carbonyl)hexahydropyrrolo[3,4-c]pyrrol-2(1H)-yl)ethyl)-4-(3-fluorophenyl)piperidin-1-yl)-3-hydroxy-2,2-dimethylpropan-1-one] | 6.00
14 | Cc1cc(C#N)nc(C)c1C(=O)N1C[C@H]2CN(CCC3(c4ccccc4)CN(C(=O)C4CC(F)(F)C4)C3)C[C@H]2C1 [5-((3aR,6aS)-5-(2-(1-(3,3-difluorocyclobutanecarbonyl)-3-phenylazetidin-3-yl)ethyl)octahydropyrrolo[3,4-c]pyrrole-2-carbonyl)-4,6-dimethylpicolinonitrile] | 9.00

More lines, now with the values ahead:

Row | pIC50 | SMILES
15 | 7.03 | Cc1ncnc(C)c1C(=O)N1C[C@H]2CN(CCC3(c4ccccc4)CN(C(=O)C4CC(F)(F)C4)C3)C[C@H]2C1 [((3aR,6aS)-5-(2-(1-(3,3-difluorocyclobutanecarbonyl)-3-phenylazetidin-3-yl)ethyl)hexahydropyrrolo[3,4-c]pyrrol-2(1H)-yl)(4,6-dimethylpyrimidin-5-yl)methanone]
16 | 7.82 | Cc1ccnc(C)c1C(=O)N1C[C@H]2CN(CCC3(c4ccccc4)CN(C(=O)C4CCC(F)(F)CC4)C3)C[C@H]2C1 [((3aR,6aS)-5-(2-(1-(4,4-difluorocyclohexanecarbonyl)-3-phenylazetidin-3-yl)ethyl)hexahydropyrrolo[3,4-c]pyrrol-2(1H)-yl)(2,4-dimethylpyridin-3-yl)methanone]
17 | 5.71 | Cc1ncnc(C)c1C(=O)N1C[C@H]2CN(CCC3(c4ccccc4)CCN(C(=O)C(C)(C)C)C3)C[C@H]2C1 (stereo partly drawn) [1-(3-(2-((3aR,6aS)-5-(4,6-dimethylpyrimidine-5-carbonyl)hexahydropyrrolo[3,4-c]pyrrol-2(1H)-yl)ethyl)-3-phenylpyrrolidin-1-yl)-2,2-dimethylpropan-1-one]
18 | 6.73 | Cc1ncnc(C)c1C(=O)N1C[C@H]2CN(CCC3(c4ccccc4)CN(C(=O)C(C)(C)C)C3)C[C@H]2C1 [1-(3-(2-((3aR,6aS)-5-(4,6-dimethylpyrimidine-5-carbonyl)hexahydropyrrolo[3,4-c]pyrrol-2(1H)-yl)ethyl)-3-phenylazetidin-1-yl)-2,2-dimethylpropan-1-one]
19 | 6.34 | Cc1ncnc(C)c1C(=O)N1C[C@H]2CN(CCC3(c4ccccc4)CN(S(=O)(=O)C4CCCC4)C3)C[C@H]2C1 [((3aR,6aS)-5-(2-(1-(cyclopentylsulfonyl)-3-phenylazetidin-3-yl)ethyl)hexahydropyrrolo[3,4-c]pyrrol-2(1H)-yl)(4,6-dimethylpyrimidin-5-yl)methanone]
20 | 6.87 | Cc1ncnc(C)c1C(=O)N1C[C@H]2CN(CCC3(c4ccccc4)CN(C(=O)CC4CCCC4)C3)C[C@H]2C1 [2-cyclopentyl-1-(3-(2-((3aR,6aS)-5-(4,6-dimethylpyrimidine-5-carbonyl)hexahydropyrrolo[3,4-c]pyrrol-2(1H)-yl)ethyl)-3-phenylazetidin-1-yl)ethanone]
21 | 8.00 | Cc1ncnc(C)c1C(=O)N1C[C@H]2CN(CCC3(c4ccccc4)CN(C(=O)C4CCC(F)(F)CC4)C3)C[C@H]2C1 [((3aR,6aS)-5-(2-(1-(4,4-difluorocyclohexanecarbonyl)-3-phenylazetidin-3-yl)ethyl)hexahydropyrrolo[3,4-c]pyrrol-2(1H)-yl)(4,6-dimethylpyrimidin-5-yl)methanone]
22 | 6.51 | Cc1ncnc(C)c1C(=O)N1C[C@H]2CN(CCC3(c4ccccc4)CN(C(=O)C(C)(C)CO)C3)C[C@H]2C1 [1-(3-(2-((3aR,6aS)-5-(4,6-dimethylpyrimidine-5-carbonyl)hexahydropyrrolo[3,4-c]pyrrol-2(1H)-yl)ethyl)-3-phenylazetidin-1-yl)-3-hydroxy-2,2-dimethylpropan-1-one]
23 | 6.25 | Cc1ncnc(C)c1C(=O)N1C[C@H]2CN(CCC3(c4ccccc4)CN(C(=O)C4CCOC4)C3)C[C@H]2C1 (stereo partly drawn) [(4,6-dimethylpyrimidin-5-yl)((3aR,6aS)-5-(2-(3-phenyl-1-(tetrahydrofuran-3-carbonyl)azetidin-3-yl)ethyl)hexahydropyrrolo[3,4-c]pyrrol-2(1H)-yl)methanone]
